The test system of one assay is S. aureus ATCC 49230. Nature of the assay: microbe, parasite or virus in culture. The settings on record: Staphylococcus aureus. From the text:
(§1) A total of 18 bacterial strains relevant to orthopedic infections were used for microbiological tests, including 8 ATCC (American Type Culture Collection, ATCC, Manassas, VA, USA) and 10 clinical isolates (CI) from the Laboratory of Clinical Chemistry and Microbiology, IRCCS Ospedale Galeazzi–Sant’Ambrogio of Milan (Italy) strain collection. The ATCC strains were used for the first screening (MIC/MBC) of all the AMPs produced, while the clinical isolates were used for further MIC/MBC assays on selected AMPs. Among CI, S. epidermidis GOI1153754-03-14 has been already characterized and used in previous studies. All the strains were stocked at −80°C and working stocks were stored at −20 °C. At the occurrence, the bacteria were resuscitated in Brain Hearth Infusion (BHI, Millipore, Milan, Italy) broth at 37 °C for 18 h from the working stocks.
(§2) To determine the minimum inhibitory concentration (MIC) and the minimum bactericidal concentration (MBC), ISO20776-1 and Clinical and Laboratory Standards Institute guidelines were followed. A commercial synthetic LL-37 (Aurogene, Rome, Italy) was used as the control in the MIC and MBC assays. A stock solution of each AMP was prepared at 600 µg/mL to achieve a final concentration of 300 µg/mL. […] The MIC was determined according to the aforementioned standard guidelines. The MBC was determined by plating 2 µL of culture from each well of the MIC plates on a Tryptic Soy Agar (TSA, Millipore, Milan, Italy) plate and incubated for 24 h at 37 °C. The concentration at which there was no growth was recorded as MBC. Each experiment was carried out in triplicate. Representative MIC and MBC values for vancomycin and gentamicin were assessed to offer a benchmark comparison for the AMPs. Quality control was conducted with Staphylococcus aureus ATCC 29,213 and vancomycin according to EUCAST guidelines.

Another assay relates to S. aureus ATCC 25923. The assay can be described thus: microbe, parasite or virus in culture. To be noted: Staphylococcus aureus.
Text: as §1, §2

A further assay concerns E. coli ATCC 25922. The assay can be described thus: microbe, parasite or virus in culture. To be noted: Escherichia coli.
Text: as §1, §2

A further assay deals with P. aeruginosa ATCC 27853. The assay can be described thus: microbe, parasite or virus in culture. The settings on record: Pseudomonas aeruginosa.
Text: as §1, §2

Assay [1] deals with S. epidermidis ATCC 14990. The assay can be described thus: microbe, parasite or virus in culture. The settings on record: Staphylococcus epidermidis.
Text: as §1, §2

Assay [2] deals with S. epidermidis ATCC 35984. The assay can be described thus: microbe, parasite or virus in culture. To be noted: Staphylococcus epidermidis.
Text: as §1, §2

For the next assay, the system named is S. aureus ATCC 43300. Nature of the assay: microbe, parasite or virus in culture. To be noted: Staphylococcus aureus.
Text: as §1, §2

Another assay deals with ATCC strains. To be noted: all ATCC strains, at the concentrations tested (up to 200 µg/mL).
Text: as §1, §2

Where a name gives a salt, the structure may show the parent alone.

Regarding `O=C(O)C(F)(F)F` [Na-TFA, Trifluoroacetic acid, reference compound], the MBC with S. aureus ATCC 49230 (ATCC49230, 24 h, read-out: Minimum Bactericidal Concentration (MBC)) was > 200 µg/mL; in the assay with S. aureus ATCC 25923 (ATCC25923, 24 h, read-out: Minimum Bactericidal Concentration (MBC)), > 200 µg/mL; in the assay on E. coli ATCC 25922 (ATCC25922, 24 h, read-out: Minimum Bactericidal Concentration (MBC)) it was > 200 µg/mL; in the assay with P. aeruginosa ATCC 27853 (ATCC27853, 24 h, read-out: Minimum Bactericidal Concentration (MBC)), > 200 µg/mL; in assay [1] (ATCC14990, 24 h, read-out: Minimum Bactericidal Concentration (MBC)) it was > 200 µg/mL; in assay [2] (ATCC35984, 24 h, read-out: Minimum Bactericidal Concentration (MBC)), > 200 µg/mL. Besides, the MBC in the assay on S. aureus ATCC 43300 (ATCC43300, 24 h, read-out: Minimum Bactericidal Concentration (MBC)) is > 200 µg/mL. Moreover, the MIC in the assay on S. aureus ATCC 49230 (ATCC49230, read-out: Minimum Inhibitory Concentration (MIC)) was > 200 µg/mL; with S. aureus ATCC 25923 (ATCC25923, read-out: Minimum Inhibitory Concentration (MIC)), > 200 µg/mL; with E. coli ATCC 25922 (ATCC25922, read-out: Minimum Inhibitory Concentration (MIC)), > 200 µg/mL; in the assay with P. aeruginosa ATCC 27853 (ATCC27853, read-out: Minimum Inhibitory Concentration (MIC)), > 200 µg/mL; in assay [1] (ATCC14990, read-out: Minimum Inhibitory Concentration (MIC)), > 200 µg/mL; in assay [2] (ATCC35984, read-out: Minimum Inhibitory Concentration (MIC)), > 200 µg/mL. Moreover, the MIC with S. aureus ATCC 43300 (ATCC43300, read-out: Minimum Inhibitory Concentration (MIC)) was > 200 µg/mL. For the same compound, the “Bacteriostatic or bactericidal effect” value in the assay on ATCC strains is given as “no bacteriostatic or bactericidal effect”.

The values above are taken from publication PMC11350787, “Antimicrobial Properties and Cytotoxicity of LL-37-Derived Synthetic Peptides to Treat Orthopedic Infections” (Antibiotics, 2024).
